# Experimental data published in paper PMC8536600 (Cancer Chemotherapy and Pharmacology, 2021).
# Read-outs that look alike come from different tables or passages of the source.
# Key:
# [1] = test system: CYP3A4; conditions: cited from earlier work
# [2] = Observed concentrations versus concentrations simulated with Chen et al.'s popPK model for myelofibrosis patients; set-up: species or system human; conditions: simulated with Chen et al.'s MF model, lower than observed
# Excerpt: The model published by Chen et al. was also encoded in R using the mrgsolve package for R [30]. Applying patient covariates and dosing schemes, the model was used to predict every observed concentration of every patient included in our study based on individual patient covariates and dosing data.
# [3] = set-up: method as in Chen et al., J Clin Pharmacol. 2013;53(7):721-30; conditions: fixed, ref Chen et al., J Clin Pharmacol. 2013;53(7):721-30, cited from earlier work
# [4] = cited from earlier work
# [5] = Steady state Ruxolitinib trough serum concentrations in GvHD patients in clinical routine (LC-MS/MS); type: in vivo, human
# Excerpt: Patients were enrolled in a noninterventional prospective clinical trial at the University Hospital of Würzburg between February 2019 and February 2021. The study was approved by the Ethics Commission of the University of Würzburg (ref 199/18-am). All performed procedures were in accordance with the Declaration of Helsinki. Written informed consent was obtained from all patients. […] After enrollment blood samples and patient data were collected regularly during routine outpatient visits for 1 year. Treatment was managed at the discretion of the treating physician.
# Serum samples were collected at each outpatient visit during routine blood withdrawal. Patients were asked to take Ruxolitinib after blood withdrawal. Date and time of last administration and blood withdrawal were recorded. Samples obtained at least 48 h after initiation or modification of therapy were considered steady state samples [27]. Samples obtained between eight and 30 h after last administration (depending on dosing scheme) were considered trough levels.
# In brief, after protein precipitation with acetonitrile separation was achieved on a Waters XBridge Phenyl 3.5 µm (2.1 × 50 mm) column using gradient elution (flow rate 400 μL/min). […] Lower level of quantification (LLOQ) of the method was 2 ng/mL. Concentrations < LLOQ were excluded from further statistical analysis but included as censored data (between 0 ng/mL and LLOQ) in the popPK analysis.
# (§1) Data were collected and processed using Microsoft Excel 2016 Version 16.0 (Microsoft Corporation, Redmond, WA, USA). Statistical calculations and visualization of results were performed with R Studio Version 1.2.5042 (RStudio Incorporation, Boston, MA, USA) and running R version 4.0.5 (R Foundation for Statistical Computing, Vienna, Austria, 2020). […] To fully display the degree of variability, concentrations were also summarized across all patients, stratified by dosing scheme. Pairwise comparisons were performed using Wilcoxon rank-sum test. Wilcoxon-signed-rank test was used for […] samples. For comparisons between more than two groups the Kruskal–Wallis one-way analysis of variance combined with Dunn’s test post hoc was used. Spearman’s correlation was used for analysis of AE. Logistic regression followed by receiver operator characteristic (ROC) analysis was used to evaluate the risk for the occurrence of AE of any grade or type on a visit in relation to the corresponding trough concentration on that visit. Due to the explorative nature of the study, p values obtained from multiple comparisons were not corrected for multiple testing. A p value < 0.05 was considered statistically significant. A Spearman’s rho (ρ) correlation was defined as follows: 0 to 0.3 or 0 to −0.3, weak; 0.3 to 0.7 or −0.3 to −0.7, moderate and 0.7 to 1 or −0.7 to −1, strong.
# [6] = Exploratory population pharmacokinetic (popPK) analysis in GvHD patients; type: in vivo, human; conditions: for RUV b (residual unexplained variability, proportional error) / ωCL/F (inter-individual variability on CL/F) / ωV (inter-individual variability on Vc/F): as standard deviation of normal distribution
# Experimental: An exploratory popPK analysis was conducted to identify relevant covariates influencing drug exposure, to predict the influence of strong CYP3A4 or CYP2C9 inhibitors or PPI and to generate population estimates for apparent oral clearance (CL/F) and apparent central volume of distribution (Vc/F) as classical statistical analysis was not suitable due to the unbalanced number of samples per patient. The analysis was conducted on the individual raw data (as opposed to the descriptive statistics) using Monolix 2020R1 (Antony, France: Lixoft SAS, 2020) and was based on a previously published popPK model by Chen et al. investigating pharmacokinetics in patients with primary and secondary myelofibrosis (MF).
# Oral pharmacokinetics were described by a two-compartment model using first order absorption with lag time and linear elimination from the first compartment only. The population mean values for CL/F and Vc/F were re-estimated using the SAEM algorithm implemented in Monolix. The remaining parameters, except for the covariate model, were fixed to the original values. As in the original model, all pharmacokinetic parameters were assumed to be log-normally distributed. Dichotomous categorical covariates, were implemented as follows:1 logCL/Ftypical=logCL/Fpop+β^COV with COV being 0 or 1 encoding for the presence or absence of covariate effect.
# Continuous covariates were scaled to the population mean values using the following exponential relationship:2 logCL/Ftypical=logCL/Fpop+β∙COV with COV being the value of individual covariate, e.g., scaled eGFR = eGFR/70.2.
# Inter-individual variability (η) was implemented for CL/F and Vc/F according to: 3 logCL/Find=logCL/Ftypical+ηind,CLFwithηCL/F∼N0,ωCL/F2logVc/Find=logVc/Ftypical+ηind,Vc/FwithηVc/F∼N0,ωVc/F2
# Residual unexplained variability (RUV) was modeled using a proportional error model represented by the parameter b and the following equation:4 Concobs=Concpred∙1+ϵwithϵ∼N(0,b^2)
# A stepwise approach was used to develop the covariate model. Covariate effects were assessed using the Wald test and by comparing objective function values (OFV, which is the −2-log-likelihood) and derived descriptors such as Bayesian Information Criteria (BIC), corrected Bayesian Information Criteria (cBIC), and Akaike Information Criteria (AIC). The criterion for forward inclusion was an improvement of the OFV (p ≤ 0.1). In the backward elimination, a limit for the p value of < 0.05 was applied. The following covariates were tested: the presence of strong or moderate CYP3A4 or CYP2C9 inhibitors on CL/F, the presence of PPI on F (as relative bioavailability), aspartate aminotransferase (AST) on CL/F, total body weight on Vc/F, eGFR on CL/F, sex on CL/F, and smoking habit on CL/F.
# [7] = Clinical and laboratory adverse events (CTCAE v5.0) in relation to Ruxolitinib trough serum concentration; type: in vivo, human; conditions: for Mean trough concentration in group: logistic regression on at least three AE
# Experimental: Adverse events (AE) were registered by questioning patients at each sampling time point. Patients were specifically asked for AE occurring in ≥ 1/100 patients according to the prescribing information. Clinical AE were graded according to the […] (CTCAE) Version 5.0 [26]. Further recorded patient data included age, sex, height, weight, ethnicity, smoking status, dosing regimen, and comedication. Relevant laboratory parameters were recorded in parallel to blood sampling (estimated glomerular filtration rate (eGFR), serum creatinine, serum albumin, total cholesterol, total bilirubin, hemoglobin, white blood cell count, absolute neutrophil count, platelet count, aspartate, and alanine aminotransferase).
# as §1
# [8] = popPK analysis in patients with aGvHD
# [9] = daily dose 5-< 20 mg, 51 samples
# [10] = daily dose > 20-40 mg, 3 samples
smiles,measurement,setting,value
CC[C@H]1OC(=O)[C@H](C)[C@@H](O[C@H]2C[C@@](C)(OC)[C@@H](O)[C@H](C)O2)[C@H](C)[C@@H](O[C@@H]2O[C@H](C)C[C@H](N(C)C)[C@H]2O)[C@](C)(O)C[C@@H](C)CN(C)[C@H](C)[C@@H](O)[C@]1(C)O [Azithromycin],CYP3A4 (inhibitor / inducer),[1],inhibitor
CN(C)C(=O)C(CCN1CCC(O)(c2ccc(Cl)cc2)CC1)(c1ccccc1)c1ccccc1 [Loperamide],CYP3A4 (inhibitor / inducer),[1],inhibitor
same,CYP3A4 Strength,[1],strong
C=C[C@H]1C[N@@]2CC[C@H]1C[C@H]2[C@H](O)c1ccnc2ccc(OC)cc12 [Quinine],CYP3A4 (inhibitor / inducer),[1],inducer / inhibitor
N#CC[C@H](C1CCCC1)n1cc(-c2ncnc3[nH]ccc23)cn1 [Ruxolitinib],Median paired difference between observed and simulated serum concentrations,[2]; non-trough concentrations,64.9 ng/mL
same,Median paired difference between observed and simulated serum concentrations,[2]; trough concentrations,27.1 ng/mL
same,"Q/F, population mean",[3]; base model,2.53 L/h
same,"TLag, population mean",[3]; base model,0.0545 h
same,"Vper/F, population mean",[3]; base model,11.2 L
same,"ka, population mean",[3]; base model,4.12 h⁻¹
same,"Q/F, population mean",[3]; covariate model,2.53 L/h
same,"TLag, population mean",[3]; covariate model,0.0545 h
same,"Vper/F, population mean",[3]; covariate model,11.2 L
same,"ka, population mean",[3]; covariate model,4.12 h⁻¹
same,CL/F for a typical female,[4]; patients with MF,17.7 L/h
same,CL/F for a typical male,[4]; patients with MF,22.1 L/h
same,Lower oral clearance in comparison to MF patients,[4]; [8],66.7%
same,Slower rate of absorption in comparison to MF patients,[4]; [8],28%
same,All trough serum concentrations at 5 mg daily,"[5]; 5 mg daily, 3 of 4 samples < LLOQ (2 ng/mL)",^aAll trough serum concentrations at 5 mg daily were ≤ 2.17 ng/mL (3 of 4 samples < LLOQ)
same,Range of individual mean trough serum concentrations,"[5]; 20 mg daily, n = 20 individuals",5.6 to 99.8 ng/mL
same,Median of individual mean trough serum concentrations,"[5]; 20 mg daily, patients not requiring AE-related dose reduction, n = 18",39.8 ng/mL
same,Median of individual mean trough serum concentrations,"[5]; 20 mg daily, patients who had dose reductions for AE, before reduction, n = 4",60.6 ng/mL
same,Median of individual mean trough serum concentrations,"[5]; 20 mg daily, steady state, n = 20 individuals",39.9 ng/mL
same,Range of individual mean trough serum concentrations,"[5]; 5-< 20 mg daily, n = 8 individuals",7.7 to 46.8 ng/mL
same,Median of individual mean trough serum concentrations,"[5]; 5-< 20 mg daily, steady state, n = 8 individuals",26.2 ng/mL
same,Median of individual mean trough serum concentrations,"[5]; > 20-40 mg daily, steady state, n = 2 individuals",15 ng/mL
same,"Steady state trough serum concentration of all samples across all individuals, Median","[5]; daily dose 20 mg, 120 samples",40.5 ng/mL
same,"Steady state trough serum concentration of all samples across all individuals, Range","[5]; daily dose 20 mg, 120 samples",2.7 to 229 ng/mL
same,"Steady state trough serum concentration of all samples across all individuals, Median",[5]; [9],17.5 ng/mL
same,"Steady state trough serum concentration of all samples across all individuals, Range",[5]; [9],2.2 to 155 ng/mL
same,"Steady state trough serum concentration of all samples across all individuals, Median",[5]; [10],25.1 ng/mL
same,"Steady state trough serum concentration of all samples across all individuals, Range",[5]; [10],4.3 to 28.5 ng/mL
same,"Steady state trough serum concentration of all samples across all individuals, Median","[5]; daily dose: All, 174 samples",31.4 ng/mL
same,"Steady state trough serum concentration of all samples across all individuals, Range","[5]; daily dose: All, 174 samples",2.2 to 229 ng/mL
same,Median of mean trough concentrations,"[5]; patients with AE-related dose reduction, after dose reduction, n = 4",28.4 ng/mL
same,Trough concentrations under dual CYP inhibition,"[5]; two patients receiving Posaconazole plus Atorvastatin or Amiodarone, mostly above this value",> 80 ng/mL
same,"CL/F, population mean",[6]; base model,8.55 L/h
same,"Vc/F, population mean",[6]; base model,64.8 L
same,"RUV b (residual unexplained variability, proportional error)",[6]; base model,0.50
same,ωCL/F (inter-individual variability on CL/F),[6]; base model,0.52
same,ωV (inter-individual variability on Vc/F),[6]; base model,0.25
same,Reduction of CL/F due to coadministration of at least one strong CYP3A4 or CYP2C9 inhibitor,"[6]; compared to study patients not receiving relevant strong inhibitors, back transformation of β",15%
same,"Vc/F, population mean",[6]; covariate model,61.9 L
same,"βCL, STRONG_INH (covariate effect of strong CYP3A4 or CYP2C9 inhibitors on CL/F)",[6]; covariate model,-0.16
same,"CL/F, population mean (typical CL/F)",[6]; covariate model including strong CYP inhibitors as covariate,9.74 L/h
same,Share of inter-individual variability on CL/F explained by strong CYP3A4 or CYP2C9 inhibitors,[6]; covariate model vs base model,about 4%
same,"RUV b (residual unexplained variability, proportional error)",[6]; covariate model,0.50
same,ωCL/F (inter-individual variability on CL/F),[6]; covariate model,0.48
same,ωV (inter-individual variability on Vc/F),[6]; covariate model,0.29
same,Effect of simultaneous administration of PPI on Ruxolitinib exposure,[6]; covariate tested on relative bioavailability,did not affect Ruxolitinib exposure
same,Reduction of Ruxolitinib clearance in GvHD population,[6]; in comparison to the population of Chen et al. (patients with MF),approximately 50%
same,"Clinical AE reported at the time of blood sampling, total number","[7]; 29 GvHD patients, all grades",302
same,"Clinical AE of grade 1, number",[7]; CTCAE grade 1,250
same,"Clinical AE of grade 2, number",[7]; CTCAE grade 2,46
same,Share of all reported clinical AE of grade 3,[7]; CTCAE grade 3,2.0%
same,Clinical AE of grade 4 or 5,[7]; CTCAE grade 4 or 5,no AE of grade 4 or 5
same,Average clinical AE reported at each sampling time point,[7]; grade 1,0.95
same,Average clinical AE reported at each sampling time point,[7]; grade 2,0.18
same,Average clinical AE reported at each sampling time point,[7]; grade 3,0.02
same,Mean trough concentration in group,[7]; first of both groups as printed,35.9 ng/mL
same,Mean trough concentration in group,[7]; second of both groups as printed,62.8 ng/mL
same,Correlation between trough concentration and occurrence of grade 1 AE on the same visit,"[7]; vertigo and cephalgia, p < 0.05",significant correlation
same,"Effect of Ruxolitinib exposure on thrombocyte count, absolute neutrophil count and bilirubin",[7]; visual analysis of the data,did not reveal obvious effects
